Laboratory results taken from the NIST ThermoML archive (doi:10.1016/j.jct.2009.02.002).
Numbers after ± are expanded uncertainties.

Assay: xn = mol fraction of the nth substance listed
Conditions: 101 kPa, Liquid; for viscosity: Capillary tube (Ostwald / Ubbelohde) method; for mass density: Vibrating tube method; for speed of sound: automatically measured using an Anton Paar DSA 5000 instrument

CC(C)CCCC(C)CCCC(C)CCCCC(C)CCCC(C)CCCC(C)C (stereo unspecified) [2,6,10,15,19,23-hexamethyltetracosane] + CC(C)CO
Conditions	mass density, 298.15 K [kg/m3]	mass density, 303.15 K [kg/m3]	mass density, 308.15 K [kg/m3]	speed of sound, 298.15 K [m/s]	speed of sound, 303.15 K [m/s]	speed of sound, 308.15 K [m/s]	viscosity, 298.15 K [mPa·s]	viscosity, 303.15 K [mPa·s]	viscosity, 308.15 K [mPa·s]
x2 = 0.0803	804.648 ± 0.14	801.388 ± 0.14	798.13 ± 0.14	1377 ± 0.5	1359.1 ± 0.5	1341.4 ± 0.5	23.81 ± 0.12	18.82 ± 0.095	15.28 ± 0.079
x2 = 0.1032	804.528 ± 0.14	801.259 ± 0.14	797.982 ± 0.14	1375.6 ± 0.5	1357.7 ± 0.5	1340 ± 0.5	22.85 ± 0.11	18.11 ± 0.092	14.72 ± 0.076
x2 = 0.1672	804.219 ± 0.14	800.916 ± 0.14	797.596 ± 0.14	1371.4 ± 0.5	1353.4 ± 0.5	1335.6 ± 0.5	20.71 ± 0.1	16.5 ± 0.084	13.45 ± 0.07
x2 = 0.2045	804.051 ± 0.14	800.733 ± 0.14	797.401 ± 0.14	1368.7 ± 0.5	1350.8 ± 0.5	1332.9 ± 0.5	19.78 ± 0.099	15.78 ± 0.081	12.85 ± 0.067
x2 = 0.2551	803.824 ± 0.14	800.484 ± 0.14	797.129 ± 0.14	1364.9 ± 0.5	1347.2 ± 0.5	1329.2 ± 0.5	18.76 ± 0.094	14.97 ± 0.077	12.18 ± 0.064
x2 = 0.3201	803.546 ± 0.14	800.183 ± 0.14	796.807 ± 0.14	1359.9 ± 0.5	1341.8 ± 0.5	1324 ± 0.5	17.7 ± 0.089	14.12 ± 0.073	11.47 ± 0.06
x2 = 0.417	803.131 ± 0.14	799.716 ± 0.14	796.307 ± 0.14	1351.3 ± 0.5	1333.4 ± 0.5	1315.5 ± 0.5	16.34 ± 0.083	12.99 ± 0.068	10.54 ± 0.056
x2 = 0.4978	802.728 ± 0.14	799.277 ± 0.14	795.831 ± 0.14	1343.1 ± 0.5	1325.1 ± 0.5	1307.2 ± 0.5	15.11 ± 0.077	12 ± 0.063	9.757 ± 0.053
x2 = 0.6316	801.934 ± 0.14	798.413 ± 0.14	794.872 ± 0.14	1325.5 ± 0.5	1307.7 ± 0.5	1290.1 ± 0.5	12.54 ± 0.065	9.98 ± 0.053	8.196 ± 0.045
x2 = 0.7005	801.422 ± 0.14	797.855 ± 0.14	794.26 ± 0.14	1313.6 ± 0.5	1295.9 ± 0.5	1278.1 ± 0.5	10.9 ± 0.058	8.721 ± 0.048	7.217 ± 0.041
x2 = 0.8028	800.494 ± 0.14	796.852 ± 0.14	793.147 ± 0.14	1289.2 ± 0.5	1271.7 ± 0.5	1254.1 ± 0.5	8.199 ± 0.045	6.648 ± 0.038	5.581 ± 0.033
x2 = 0.8482	800.015 ± 0.14	796.317 ± 0.14	792.582 ± 0.14	1274.6 ± 0.5	1257.1 ± 0.5	1239.6 ± 0.5	6.959 ± 0.04	5.693 ± 0.034	4.802 ± 0.029
x2 = 0.9095	799.392 ± 0.14	795.551 ± 0.14	791.791 ± 0.14	1248.9 ± 0.5	1231.6 ± 0.5	1214.3 ± 0.5	5.361 ± 0.032	4.404 ± 0.027	3.728 ± 0.023
x2 = 0.9448	799.012 ± 0.14	795.162 ± 0.14	791.339 ± 0.14	1229.5 ± 0.6	1212.5 ± 0.6	1195.4 ± 0.6	4.53 ± 0.028	3.703 ± 0.023	3.115 ± 0.019
